This note sets out measurements from PubChem BioAssay (NCI).

Structures are written as SMILES.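 Protocol summary: plate cells (96-well), add compound at 5 concentrations, incubate 48 h, interpolate endpoints linearly. GI50 is the concentration that inhibits growth by half. TGI: concentration producing complete growth inhibition.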

Test systems include UACC-62 melanoma; HOP-62 NSCLC; MALME-3M melanoma; U251 CNS; SF-268 CNS; SF-295 CNS.
What all share (test): NCI tumour cell line growth inhibition, 48 h

For the compound `O=[N+]([O-])c1ccc(-c2nc(-c3ccccc3)c(-c3ccccc3)n2-c2ccccc2)cc1`, the GI50 was 2.18 µM in the assay with UACC-62 melanoma; 5.36 µM in the assay with HOP-62 NSCLC; 2.78 µM with MALME-3M melanoma; 2.74 µM in the assay on U251 CNS; 3.7 µM in the assay with SF-268 CNS; 2.68 µM in the assay with SF-295 CNS. Further, the TGI is 8.53 µM with UACC-62 melanoma; over 86.2 µM with HOP-62 NSCLC; 8.58 µM in the assay with MALME-3M melanoma; 10.7 µM in the assay on U251 CNS; 17.6 µM in the assay with SF-268 CNS; 8.25 µM with SF-295 CNS.

Consider `Cc1cc2cc3cc(C)c(N(C)C)cc3nc2cc1N(C)C`, for which the GI50 is 2.97 µM with UACC-62 melanoma; 5.08 µM in the assay on HOP-62 NSCLC; 3.53 µM in the assay with MALME-3M melanoma; 1.42 µM in the assay on U251 CNS; 3.45 µM in the assay with SF-268 CNS; 1.81 µM in the assay with SF-295 CNS. The TGI with UACC-62 melanoma is 17.2 µM; in the assay with HOP-62 NSCLC, 19.9 µM; with MALME-3M melanoma, 19 µM; with U251 CNS, over 100 µM; in the assay with SF-268 CNS it was 15.1 µM; in the assay with SF-295 CNS, 8.52 µM.

Consider `CCOC(=O)c1sc2nc3sc(N=Nc4ccc(Cl)cc4)c(O)n3c(=S)c2c1C`, for which the GI50 in the assay on UACC-62 melanoma was 13 µM; in the assay on HOP-62 NSCLC, 30.3 µM; with MALME-3M melanoma it was 34.9 µM; in the assay with U251 CNS, 29.1 µM; in the assay with SF-268 CNS it was 19.7 µM; in the assay with SF-295 CNS it was 31 µM. The TGI in the assay with UACC-62 melanoma was 32.5 µM; in the assay with HOP-62 NSCLC it was over 100 µM; in the assay on MALME-3M melanoma, 95 µM; in the assay with U251 CNS, over 100 µM; with SF-268 CNS, 82 µM; in the assay with SF-295 CNS it was over 100 µM.

For the compound `ClC1=C(Cl)C(Cl)=C(Cl)C1=C/C=C/c1ccccc1`, the GI50 with UACC-62 melanoma is 0.191 µM; in the assay on HOP-62 NSCLC, 1.2 µM; with MALME-3M melanoma it was 0.167 µM; in the assay with U251 CNS, 0.346 µM; with SF-268 CNS, 0.261 µM; with SF-295 CNS, 0.311 µM. Also, the TGI came to 0.467 µM in the assay with UACC-62 melanoma; 4.17 µM in the assay with HOP-62 NSCLC; 0.499 µM with MALME-3M melanoma; 1.37 µM with U251 CNS; 1.51 µM in the assay on SF-268 CNS; 1.02 µM in the assay on SF-295 CNS.

`COc1ccc(C(=O)c2ccc(OC)c(OC)c2OC)cc1`: the GI50 is 1.47 µM with UACC-62 melanoma; 2.39 µM in the assay on HOP-62 NSCLC; 1.77 µM in the assay on MALME-3M melanoma; 0.725 µM in the assay with U251 CNS; 5.2 µM in the assay with SF-268 CNS; 0.956 µM with SF-295 CNS. Also, the TGI in the assay with UACC-62 melanoma was over 100 µM; in the assay on HOP-62 NSCLC, over 100 µM; in the assay on MALME-3M melanoma, over 100 µM; with U251 CNS it was over 100 µM; in the assay with SF-268 CNS, over 100 µM; with SF-295 CNS, 5.07 µM.

For `CCOc1ccc([C@@H]2[C@@H](Oc3ccccc3)C(=O)N2c2cc(OC)c(OC)c(OC)c2)cc1`, the GI50 in the assay with UACC-62 melanoma is 0.0427 µM; in the assay with HOP-62 NSCLC, 0.0586 µM; with MALME-3M melanoma, over 100 µM; in the assay with U251 CNS, 0.0462 µM; in the assay on SF-268 CNS it was 0.0975 µM; in the assay on SF-295 CNS, 0.0534 µM. Moreover, the TGI with UACC-62 melanoma, with HOP-62 NSCLC, with MALME-3M melanoma, in the assay with U251 CNS, in the assay on SF-268 CNS and with SF-295 CNS was over 100 µM in each case.

In the case of `COc1ccc(Nn2c(SCC(=O)Nc3nc(-c4ccc(Cl)cc4)cs3)nc(C)c2C)cc1`, the GI50 is 3.62 µM in the assay with UACC-62 melanoma; 2.9 µM in the assay with MALME-3M melanoma; 4.03 µM in the assay on U251 CNS; 2.81 µM in the assay on SF-268 CNS; 2.18 µM in the assay on SF-295 CNS. For the same compound, the TGI in the assay with UACC-62 melanoma, in the assay with MALME-3M melanoma, in the assay with U251 CNS, in the assay with SF-268 CNS and in the assay on SF-295 CNS was over 100 µM throughout.

With `O=C(OCc1ccccc1)N1CCN(/[N+]([O-])=N/Oc2ccc([N+](=O)[O-])cc2[N+](=O)[O-])CC1`, the GI50 in the assay with UACC-62 melanoma was 6.72 µM; in the assay with HOP-62 NSCLC it was 12.3 µM; with U251 CNS it was 4.85 µM; with SF-268 CNS it was 6.28 µM; with SF-295 CNS, 21.5 µM. For the same compound, the TGI worked out at 20.8 µM in the assay with UACC-62 melanoma; 28 µM in the assay on HOP-62 NSCLC; 27.1 µM with U251 CNS; 23.9 µM with SF-268 CNS; 49.4 µM in the assay with SF-295 CNS.

For the compound `CCCCCCCCCCCCCCCCCC1=NCCN1CS(=O)(=O)O`, the GI50 with UACC-62 melanoma was 16.9 µM; with HOP-62 NSCLC, 14.1 µM; with U251 CNS it was 9.54 µM; in the assay with SF-268 CNS, 13.9 µM; in the assay with SF-295 CNS, 3.55 µM. Moreover, the TGI in the assay with UACC-62 melanoma was determined as 35.1 µM; in the assay with HOP-62 NSCLC it was 31.4 µM; in the assay with U251 CNS, 29 µM; in the assay on SF-268 CNS, 30.2 µM; in the assay with SF-295 CNS, 16.5 µM.

As to `OCCCN=NNc1ccc(-c2nc3ccccc3[nH]2)cc1`, the GI50 with UACC-62 melanoma is 17.6 µM; in the assay with HOP-62 NSCLC it was 50.5 µM; in the assay on U251 CNS, 2.07 µM; in the assay on SF-268 CNS, 6.16 µM; in the assay on SF-295 CNS, 2.87 µM. For the same compound, the TGI in the assay with UACC-62 melanoma came out at 50.8 µM; in the assay with HOP-62 NSCLC, 71.3 µM; in the assay on U251 CNS, 4.76 µM; with SF-268 CNS it was 32.1 µM; in the assay with SF-295 CNS, 7.58 µM.

As for `COc1ccc(-c2ccc(/C=N/n3c(COc4ccccc4Cl)nn(CN4CCN(C)CC4)c3=S)o2)c([N+](=O)[O-])c1`, the GI50 in the assay on UACC-62 melanoma is 19.2 µM; in the assay on HOP-62 NSCLC it was 21.7 µM; in the assay with MALME-3M melanoma, 20.9 µM; in the assay with U251 CNS it was 13.2 µM; with SF-268 CNS it was 17.5 µM. For the same compound, the TGI with UACC-62 melanoma came out at 44.9 µM; in the assay on HOP-62 NSCLC, 37 µM; with MALME-3M melanoma, 49.2 µM; in the assay on U251 CNS, 27.8 µM; in the assay on SF-268 CNS it was 45.1 µM.

As for `COc1cc2c(cc1OCCOS(C)(=O)=O)N=C[C@@H]1CCCN1C2=O`, the figures for the GI50 in the assay on UACC-62 melanoma, in the assay with MALME-3M melanoma and with U251 CNS were 19.4 µM, 13.6 µM and 17.1 µM, respectively. For the same compound, the TGI in the assay on UACC-62 melanoma is 42.5 µM; with MALME-3M melanoma, 31.6 µM; in the assay with U251 CNS, 31.7 µM; in the assay with SF-268 CNS, over 100 µM; with SF-295 CNS, 75.4 µM.

On to `Cc1ccc(C2NC(=S)NC3=C2CCOc2c3ccc3ccccc23)cc1` (stereo not drawn), for which the GI50 was over 100 µM in the assay on HOP-62 NSCLC, 2.98 µM with MALME-3M melanoma, over 100 µM in the assay with U251 CNS and 96 µM in the assay on SF-268 CNS. Further, the TGI is over 100 µM in the assay on HOP-62 NSCLC, 7.73 µM in the assay on MALME-3M melanoma, over 100 µM in the assay with U251 CNS and over 100 µM with SF-268 CNS.
